{"source": "patent US20020026945A1", "about": "“Enhancement of photodynamic therapy by anti-angiogenic treatment” (priority 2000, published 2002)", "molecules": {"B1": {"name": "EMAP-II: recombinant single chain polypeptide which inhibits tumor growth and has anti-angiogenic activity (protein, UniProt Q12904 147-312, looked up)", "Endothelial …": "SKPIDVSRLDLRIGCIITARKHPDADSLYVEEVDVGEIAPRTVVSGLVNHVPLEQMQNRMVILLCNLKPAKMRGVLSQAMVMCASSPEKIEILAPPNGSVPGDRITFDAFPGEPDKELNPKKKIWEQIQPDLHTNDECVATYKGVPFEVKGKGVCRAQTMSNSGIK", "modifications": "Endothelial monocyte-activating polypeptide 2"}}, "key": {"VEGF [1]": {"test_system": "VEGF", "test": "VEGF ELISA of culture media of BA mammary carcinoma cells", "type": "cell-based, mouse", "conditions": "in-vitro PDT, PH 25 μg/ml, 210 J/m^2, measured 24 hr after treatment"}, "HIF-1α": {"test_system": "HIF-1α", "test": "Western immunoblot of HIF-1α in treated tumors", "type": "in vivo, C3H mice", "procedure": "(§1) In FIG. 1A, tumors were collected immediately following treatment and evaluated for HIF-1α expression by Western immunoblot analysis. HIF-1α was not detectable in control tumors measuring 6-7 mm in diameter. […] In FIG. 1B, separate tumors were collected 24 hr after photodynamic therapy or clamping (45 min) and assayed for VEGF expression by Western immunoblot analysis. Expression of actin was used to monitor protein loading.\n(§2) In-vivo photodynamic therapy tumor treatments were performed as previously reported on tumors measuring 6-7 mm in diameter (17). Briefly, photodynamic therapy procedures included an i.v. injection of PH (5 mg/kg) followed 24 h later with non-thermal laser tumor irradiation using an argon pumped dye laser emitting red light at 630 nm. A light dose rate of 75 mW/cm^2 and a total light dose of 200 J/cm^2 were used for all in-vivo PDT treatments. Following treatment, tumors were measured 3 times per week. Cures were defined as being disease free for at least 40 days following photodynamic therapy (17). Anti-angiogenic treatment was performed using either EMAP-II or IM862. […]\n(§3) Tumors were collected at various times after treatment, homogenized with a polytron in 1X reporter lysis buffer (Promega, Wis.) and evaluated for protein expression as described previously (18). […]"}, "VEGF [2]": {"test_system": "VEGF", "test": "Western immunoblot of VEGF in treated tumors", "design": "species or system C3H mice", "conditions": "tumor lysates collected 24 hours after in-vivo PDT", "procedure": "as §1, §2, §3"}, "BA mammary carcinomas": {"test_system": "BA mammary carcinomas", "test": "In-vivo PDT tumor treatment, tumor cures", "design": "species or system C3H/HeJ mice", "conditions": "for tumor cures or tumor regression / tumor growth parameters: anti-angiogenic treatment alone, daily IP for 10 days, no PDT; for tumor cures: single PDT (PH 5 mg/kg, 200 J/cm^2) plus daily IP injections for 10 days (EMAP-II 50 μg/kg, IM862 25 mg/kg), disease free at least 40 days", "procedure": "BA mouse mammary carcinoma cells (originally obtained from the NIH tumor bank) were used in all in-vitro and in-vivo experiments (17). Cells were grown as a monolayer in RPMI 1640 media supplemented with 10% fetal calf serum (FCS) and antibiotics. The plating efficiency for the BA cells ranged from 40-60%. Subcutaneous BA mammary carcinomas were generated by trocar injection of 1-mm^3 pieces of tumor to the hind right flank of 8-12 week old female C3H/HeJ mice (17).\nIn-vivo photodynamic therapy tumor treatments were performed as previously reported on tumors measuring 6-7 mm in diameter (17). Briefly, photodynamic therapy procedures included an i.v. injection of PH (5 mg/kg) followed 24 h later with non-thermal laser tumor irradiation using an argon pumped dye laser emitting red light at 630 nm. A light dose rate of 75 mW/cm^2 and a total light dose of 200 J/cm^2 were used for all in-vivo PDT treatments. Following treatment, tumors were measured 3 times per week. Cures were defined as being disease free for at least 40 days following photodynamic therapy (17). Anti-angiogenic treatment was performed using either EMAP-II or IM862. Each compound was administered as daily IP injections for 10 consecutive days starting 1 h prior to photodynamic therapy light treatment. Individual IM862 doses were 25 mg/kg and individual EMAP-II doses were 50 μg/kg. Tumor tissue hypoxia was induced in selected experiments by clamping lesions for 45 minutes. Statistical analysis was performed using the X^2 test for evaluation of tumor cure rates.\nA photodynamic therapy procedure, which produced a moderate cure rate alone, was used to measure positive or negative changes in tumor response when a single photodynamic therapy treatment was combined with daily injections of EMAP-II or IM862 for 10 days (17)."}, "VEGF [3]": {"test_system": "VEGF", "conditions": "preclinical studies; cited from earlier work"}, "VEGF [4]": {"test_system": "VEGF", "test": "VEGF ELISA of tumor extracts after PDT", "type": "in vivo, mouse", "conditions": "PDT plus 2 doses of agent versus PDT alone; tumors collected 24 hr after PDT", "procedure": "Tumor bearing mice received either no treatment (Control), photodynamic therapy alone, or photodynamic therapy plus 2 injections of either EMAP-II or IM862 (1 hr prior to photodynamic therapy and 23 hr after photodynamic therapy). Tumor samples were collected 24 hr after PDT and assayed for VEGF expression using a commercial ELISA assay kit. Each group represents the mean ± SE of 6 individual tumor samples.\nas §2\nA Quantikine M mouse VEGF ELISA kit (R&D Systems, Minneapolis, Minn.) was used to quantify VEGF levels in cell culture media as well as in tumor extracts from control and treated mice. […]\nThe effects of the anti-angiogenic derivatives on photodynamic therapy induced VEGF levels were analyzed in the treated tumors. […]"}, "tumor cells": {"test_system": "tumor cells", "conditions": "cited from earlier work"}, "angiogenesis": {"test_system": "angiogenesis", "conditions": "preclinical studies; cited from earlier work"}, "[5]": {"test_system": "AIDS associated Kaposi's sarcoma", "conditions": "intranasal administration; reference 16; cited from earlier work"}, "xenograft models": {"test_system": "xenograft models", "conditions": "in vivo; cited from earlier work"}, "[6]": {"conditions": "in vivo; cited from earlier work"}, "[7]": {"test_system": "growing capillary endothelial cells", "conditions": "time and dose dependent; reference 15; cited from earlier work"}, "[8]": {"conditions": "in vivo; cited from earlier work", "remark": "listed apart in the source"}, "tumor growth": {"test_system": "tumor growth", "conditions": "reference 15; cited from earlier work"}, "vessel ingrowth": {"test_system": "vessel ingrowth", "conditions": "experimental angiogenesis models and primary tumors; cited from earlier work"}}, "note": "Residues, ends and D or L forms follow the SMILES beside them.", "data": [{"molecule": "Photofrin porfimer sodium", "values": [{"measurement": "VEGF levels in culture media", "setting": "VEGF [1]", "value": "modestly increase in VEGF levels"}, {"measurement": "HIF-1α expression (Western)", "setting": "HIF-1α; PDT (PH 5 mg/kg; 200 J/cm^2), tumors collected immediately following treatment", "value": "induced HIF-1α expression"}, {"measurement": "time after photodynamic therapy at which HIF-1α expression is observed", "setting": "HIF-1α; PDT of BA tumors in C3H mice", "value": "≤ 5", "unit": "min"}, {"measurement": "VEGF expression within treated lesions (Western)", "setting": "VEGF [2]", "value": "induced significant increases in VEGF expression"}, {"measurement": "cure rate", "setting": "BA mammary carcinomas; photodynamic therapy alone (PH 5 mg/kg i.v., 630 nm, 200 J/cm^2), cure = disease free for at least 40 days", "value": 39, "unit": "%"}]}, {"molecule": "N[C@@H](CCC(=O)O)C(=O)N[C@@H](Cc1c[nH]c2ccccc12)C(=O)O", "note": "[IM862, L-glutamyl-L-tryptophan] (H-Glu-Trp-OH)", "values": [{"measurement": "VEGF production in monocytic lineage cells", "setting": "VEGF [3]", "value": "inhibits VEGF production"}, {"measurement": "VEGF levels in PDT treated tumors (ELISA)", "setting": "VEGF [4]", "value": "decrease in VEGF levels"}, {"measurement": "direct cytotoxic effect on tumor cells", "setting": "tumor cells", "value": "no direct cytotoxic effect"}, {"measurement": "angiogenesis in chorioallantoic membrane assays", "setting": "angiogenesis", "value": "inhibits angiogenesis"}, {"measurement": "antitumor activity in patients", "setting": "[5]", "value": "exhibits antitumor activity"}, {"measurement": "tumor growth in xenograft models", "setting": "xenograft models", "value": "inhibits tumor growth"}, {"measurement": "safety and tolerability", "setting": "[6]", "value": "safe and well tolerated"}, {"measurement": "tumor cures or tumor regression", "setting": "BA mammary carcinomas", "value": "did not produce any tumor cures or tumor regression"}, {"measurement": "tumor growth parameters", "setting": "BA mammary carcinomas", "value": "only slightly modified tumor growth parameters"}, {"measurement": "tumor cures", "setting": "BA mammary carcinomas", "value": 78, "unit": "%"}]}, {"molecule": "B1", "values": [{"measurement": "apoptosis in growing capillary endothelial cells", "setting": "[7]", "value": "induces apoptosis"}, {"measurement": "toxicity in normal organs", "setting": "[8]", "value": "does not induce toxicity"}, {"measurement": "VEGF levels in PDT treated tumors (ELISA)", "setting": "VEGF [4]", "value": "statistically significant decrease"}, {"measurement": "tumor growth", "setting": "tumor growth", "value": "inhibits tumor growth"}, {"measurement": "vessel ingrowth", "setting": "vessel ingrowth", "value": "prevents vessel ingrowth"}, {"measurement": "tumor cures or tumor regression", "setting": "BA mammary carcinomas", "value": "did not produce any tumor cures or tumor regression"}, {"measurement": "tumor growth parameters", "setting": "BA mammary carcinomas", "value": "only slightly modified tumor growth parameters"}, {"measurement": "tumor cures", "setting": "BA mammary carcinomas", "value": 89, "unit": "%"}]}]}
